This is an account of results in patent publication US8623407B2, “Gabapentin-containing solid compositions and process for preparing the same” (Pfizer Inc., priority 1998, dated 2014).

Bounds are passed on as bounds.

Common to all, as to format: physicochemical
A short description of data set [1]: Dehydration reaction (lactam formation) when maintained in a dried state at 105° C. Particulars: 105° C. over 2-3 hours. The protocol:
To the contrary, in γ-aminobutyric acid derivatives having no or a less bulky substituent at the 3-position thereof, such as γ-aminobutyric acid or 4-amino-3-hydroxy-butanoic acid, the dehydration reaction is not brought about even when maintained in a dried state such as at a temperature of 105° C. over 2-3 hours, and the formation of 4-cyclohexylpyrrolidone (the corresponding lactam form) is not observed. In other words, in the 4-amino-3-substituted-butanoic acid derivative wherein the substituent at the 3-position thereof has a bulky structure, the dehydration reaction could easily be brought about between the amino group and the carboxyl group within the molecule.

Data set [2] in a line: Storage stability of pregabalin samples: dehydrated condensate content by HPLC. The conditions noted are these: Table 9, based on pregabalin. The protocol: The samples I, J and K obtained as described above and untreated pregabalin crystals were stored under the conditions as defined in the following Table 9 and then a content of the dehydrated condensate formed in each of the samples was determined by means of HPLC. In the present Example and the following Example 6, a content of the dehydrated condensate is expressed in terms of % by weight, based on pregabalin.
The samples L and M obtained as described above were stored under the conditions as defined in the following Table 10 and then a content of the dehydrated condensate formed in each of the samples was determined by means of HPLC.

Data set [3] in a line: Storage stability of baclofen samples: dehydrated condensates content by HPLC. Particulars: based on baclofen. The protocol: The baclofen powder samples G and H obtained as described above and untreated baclofen crystals were stored under the conditions as defined in the following Table 8 and then a content of dehydrated condensates formed in each of the samples was determined by means of HPLC. In this Example, the content of the dehydrated condensates is expressed in terms of % by weight, based on baclofen.

`NCC(O)CC(=O)O` (stereo not drawn) [4-amino-3-hydroxy-butanoic acid]: the “formation of 4-cyclohexylpyrrolidone (the corresponding lactam form)” value in data set [1] is recorded as “not observed”.
For `NCCCC(=O)O` [γ-aminobutyric acid], the “formation of 4-cyclohexylpyrrolidone (the corresponding lactam form)” value in data set [1] was “not observed”.
For `CC(C)CC(CN)CC(=O)O` (stereo not drawn) [Untreated Pregabalin, 5-methyl-3-aminomethyl-hexanoic acid], the “content of the dehydrated condensate” value in data set [2] (60° C./1 week (sealed)) is on record as 0.001 % by weight; in data set [2] (60° C./2 weeks (sealed)), 0.001 % by weight; in data set [2] (When initiated), under 0.001 % by weight.
Take `NCC(CC(=O)O)c1ccc(Cl)cc1` (stereo not drawn) [Untreated Baclofen]: the “content of dehydrated condensates” value amounted to 0.36 % by weight in data set [3] (60° C./1 week (sealed)), 0.57 % by weight in data set [3] (60° C./2 weeks (sealed)), 0.70 % by weight in data set [3] (60° C./3 weeks (sealed)) and 0.10 % by weight in data set [3] (When Initiated).
